# Results published in paper PMC10818931, “In Vitro Evaluation of Drug–Drug Interaction Potential of Epetraborole, a Novel Bacterial Leucyl-tRNA Synthetase Inhibitor” (Pharmaceuticals, 2024).
# Experiments:
# CYP2C8 = molecular target: T1, CYP2C8 (Homo sapiens, UniProt P10632); test: CYP inhibition (direct and metabolism-dependent) in human hepatic microsomes; format: in vitro ADME; conditions: for MDI IC50 Fold Change: metabolism-dependent inhibition; for IC50: read-out: as an Inhibitor IC50
# T1 construct: tissue CellzDirect; XenoTech LLC; host or cells: pooled human liver microsomes
# T1 sequence (P10632 1-490): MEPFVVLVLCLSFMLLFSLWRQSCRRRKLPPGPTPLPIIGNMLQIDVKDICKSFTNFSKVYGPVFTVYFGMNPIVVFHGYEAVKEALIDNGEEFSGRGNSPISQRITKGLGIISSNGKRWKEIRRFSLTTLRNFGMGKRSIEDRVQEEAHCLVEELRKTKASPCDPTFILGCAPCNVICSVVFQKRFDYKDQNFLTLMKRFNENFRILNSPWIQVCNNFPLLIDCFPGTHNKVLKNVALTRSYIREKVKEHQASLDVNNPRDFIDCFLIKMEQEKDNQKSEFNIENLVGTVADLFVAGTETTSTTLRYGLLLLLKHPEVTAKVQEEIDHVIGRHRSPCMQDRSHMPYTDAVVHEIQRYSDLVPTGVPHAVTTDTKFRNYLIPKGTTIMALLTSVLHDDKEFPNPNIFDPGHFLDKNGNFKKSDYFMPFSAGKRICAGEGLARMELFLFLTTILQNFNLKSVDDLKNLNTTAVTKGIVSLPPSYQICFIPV
# Method: The direct inhibitory potential of EBO on cytochrome P450 activities O-deethylase (CYP1A2), bupropion hydroxylase (CYP2B6), amodiaquine N-deethylase (CYP2C8), diclofenac 4′-hydroxylase (CYP2C9), S-mephenytoin 4′-hydroxylase (CYP2C19), bufuralol 1′-hydroxylase (CYP2D6), chlorzoxazone 6-hydroxylase (CYP2E1), testosterone 6β-hydroxylase (CYP3A), and midazolam 1′-hydroxylase (CYP3A) was assessed in vitro using human hepatic microsomes according to Covance Laboratory (Madison, WI, USA) SOP. A single substrate concentration was used, approximating the concentration of substrate that gives half the maximum reaction velocity (Km) for human hepatic microsomes for each cytochrome P450 activity. […] All sample and control incubations were performed in triplicate and were analyzed by LC-MS/MS. Incubation mixtures contained microsomal protein and substrate in a 0.1 M potassium phosphate buffer (pH 7.4) containing 1 mM EDTA (assay buffer). […] Incubations were terminated by the addition of 100 µL of an internal standard solution followed by vortex mixing. Protein was removed by centrifugation at 1500× g for 5 min at 4 °C, and supernatants were transferred to a separate plate and stored at 4 °C prior to LC-MS/MS analysis. The analyte for each activity assay was quantitated by comparison to a linear curve of an authentic standard prepared using human microsomal protein. […] Incubations were performed at substrate concentrations approximating the average Km values. […] For determination of control activities, NADPH was added after the addition of each substrate. Samples were then processed as previously described. […] Two sets of duplicate incubations were prepared (cofactor preincubation [50 µL] and control preincubation [50 µL]) with each concentration of M3. All incubations contained a final microsomal protein concentration of 0.1 mg/mL. In this study, M3 and microsomes were preincubated with cofactor for 20 min prior to initiation of reaction by addition of probe substrate. The corresponding control incubations were designed to provide a preincubation without cofactor while incorporating the 20 min preincubation of M3 with microsomes to ensure consistent equilibration of M3 in both control and cofactor preincubations. The control preincubations were therefore performed for 20 min with M3, microsomes, and probe substrate, and the reaction was initiated by the addition of a cofactor solution. […] Incubations without cofactor (at the highest concentration of M3) were performed to determine any cofactor-independent substrate metabolism formation. Probe substrate concentrations were determined by LC/MS/MS methods.
# OATP1B1 = molecular target: T2, OATP1B1 (Homo sapiens, UniProt Q9Y6L6); test: Substrate potential in transporter-transfected MDCK cells; format: in vitro ADME
# T2 construct: host or cells: MDCK
# T2 sequence (Q9Y6L6 1-691): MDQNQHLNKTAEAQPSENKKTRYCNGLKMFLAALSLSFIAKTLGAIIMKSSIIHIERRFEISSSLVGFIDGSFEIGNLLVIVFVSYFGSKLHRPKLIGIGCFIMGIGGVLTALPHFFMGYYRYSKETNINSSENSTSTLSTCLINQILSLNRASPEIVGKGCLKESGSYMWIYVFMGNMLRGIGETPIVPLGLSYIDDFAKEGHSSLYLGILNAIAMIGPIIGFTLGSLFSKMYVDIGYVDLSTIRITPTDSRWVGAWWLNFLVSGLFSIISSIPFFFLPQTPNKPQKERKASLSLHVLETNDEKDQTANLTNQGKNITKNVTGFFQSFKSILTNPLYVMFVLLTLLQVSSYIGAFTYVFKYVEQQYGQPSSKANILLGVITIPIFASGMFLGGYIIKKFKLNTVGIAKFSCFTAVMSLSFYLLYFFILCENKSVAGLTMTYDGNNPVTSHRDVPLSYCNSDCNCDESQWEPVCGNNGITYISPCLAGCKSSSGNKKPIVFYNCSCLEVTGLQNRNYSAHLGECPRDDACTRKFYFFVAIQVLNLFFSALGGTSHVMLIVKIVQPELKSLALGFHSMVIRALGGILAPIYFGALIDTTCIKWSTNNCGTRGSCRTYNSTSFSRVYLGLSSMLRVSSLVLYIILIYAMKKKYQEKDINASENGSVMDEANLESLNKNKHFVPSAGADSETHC
# Method: The uptake of a probe substrate of each transporter was conducted in parallel with the test article in separate wells of the same batch of vector control and transporter-transfected cells. Cells were incubated at 37 °C with 5% CO2 with 500 μL of dosing solution for different periods of time.
# human hepatocytes = test: Cytotoxicity in hepatocytes; conditions: EBO at 100 µM, M3 at 250 µM
# Method: The induction potential of EBO and M3 on CYP1A2, CYP2B6, and 3A4 was evaluated by incubating the test articles with plated human hepatocytes from 3 individual donors (GKJ, ZEY, WKF) in triplicate according to WuXi AppTec (Cranbury, NJ, USA) SOP.
SMILES,Direct or time-dependent inhibitory activity (in words) (CYP2C8),MDI IC50 Fold Change (CYP2C8),IC50 (CYP2C8) [µM],Influx ratio (OATP1B1),as a Substrate (OATP1B1),Cytotoxicity (>20%) (human hepatocytes)
NC[C@H]1OB(O)c2c(OCCC(=O)O)cccc21 [M3],No direct or time-dependent inhibitory activity,No,> 1000,< 2,No,did not induce cytotoxicity (>20%)
"NC[C@H]1OB(O)c2c(OCCCO)cccc21 [EBO, Epetraborole]",–,No,> 100,< 2,No,did not induce cytotoxicity (>20%)
